Assays:
Hep3B SC tumors = experiment: Combination with sorafenib in SCID mice bearing Hep3B SC tumors; type: in vivo; conditions: Sorafenib 10 mg/kg orally daily alone, three weeks, end of study
Experimental: SCID mice bearing Hep3B SC tumors (tumor size range 140-227 mm^3; average=183 mm^3) were dosed over a three week period with a combination of 0.5% methyl cellulose daily and SQT IV at 1.5 mg/kg alone weekly (Days 1, 8 and 15; Group 1), Sorafenib (in 0.5% methyl cellulose) at 10 mg/kg orally daily alone (Group 2), mmRNA encoding SQT-PUMA-BH3 (comprising a miR122 binding site) weekly at 1.5 mg/kg IV alone (Group 3) or a combination of mmRNA encoding SQT-PUMA-BH3 (with miR122 binding site) at 1.5 mg/kg IV weekly with sorafenib at 10 mg/kg orally daily (Group 4; 10 animals per group).

MCL1 = MCL1 downregulation by Western blotting in Hep3B cells; type: cell-based, human; conditions: 24 hours, sorafenib 10 uM
Experimental: A first series of experiments was conducted to determine whether specific targeting of MCL1 recapitulates sorafenib synergy with SQT-BH3 in cells in vitro.

systemic TF1a xenografts = experiment: Systemic TF1a xenografts in SCID mice (AML model); type: in vivo; conditions: TF1a-SCID; mRNA LNPs 3 mg/kg one time per week, cytarabine 2 mg/kg three times per week, IV, four weeks
Experimental: LNPs comprising the cationic lipid MC3 were tested using the optimal percentage of PEG-lipid and optimal PEG length (1.5% DSPE, C18, as described in Example 8), for in vivo targeted delivery of SQT-PUMA-BH3 in two different in vivo models of acute myeloid leukemia (AML). One model used systemic TF1a xenografts in SCID mice. The other model used systemic HEL xenografts in SCID mice. Each of these models uses a human erythroleukemia cell line. The HEL erythroleukia cell line is described in, for example, Martin, P. and Papayannopoulou, T. (1982) Science 216:1233-1235. The TF1 erythroleukmia cell line (from which TF1a is derived) is described in, for example, Kitamura, T. et al. (1989) J. Cell. Physiol. 140:323-334. Unless otherwise noted, mRNAs were fully modified with N1-methlypseudouridine to avoid stimulating an innate immune response to said mRNAs when administered in vivo.
In a first set of experiments, TF1a cells stably expressing luciferase (TF1α-luc cells) were implanted systemically in SCID mice. Tumor growth was measured by whole body bioluminescent imaging (BLI) in anaesthetized animals following SC injection of 150 mg/kg D-Luciferin, in an imaging chamber (Spectrum CT). Animals showing an increasing tumor burden at day 12 post-cell implantation were recruited for treatment. […]

| SMILES | tumor growth inhibition (TGI) (Hep3B SC tumors) [%] | MCL1 level (Western blotting) (MCL1) | systemic tumor growth (BLI) (systemic TF1a xenografts) |
| --- | --- | --- | --- |
| CNC(=O)c1cc(Oc2ccc(NC(=O)Nc3ccc(Cl)c(C(F)(F)F)c3)cc2)ccn1 [sorafenib, reference compound] | 38 | downregulates MCL1 | – |
| Nc1ccn([C@@H]2O[C@H](CO)[C@@H](O)[C@@H]2O)c(=O)n1 [cytarabine, reference compound] | – | – | did inhibit systemic tumor growth |

Reference: US20190119357A1, “MESSENGER RIBONUCLEIC ACIDS FOR THE PRODUCTION OF INTRACELLULAR BINDING POLYPEPTIDES AND METHODS OF USE THEREOF” (ModernaTX, Inc., priority 2015, published 2019)
